Source: patent US9301951B2 (Ardelyx, Inc., priority 2010, dated 2016)

What was measured:
Sprague-Dawley rats = experiment: In vivo bolus phosphorus challenge (serum phosphate elevation); conditions: rat; oral; drug dose 30; phosphate bolus 15 min after compound; serum 30 min post bolus
Procedure: By pretreating animals with a low phosphorus diet followed by the subsequent dosing of a phosphorus bolus, serum phosphorus levels were monitored after 30 minutes as a surrogate for intestinal phosphorus absorption. […] The in vivo bolus phosphorus challenge model used here mimics this model in rats.
Male, 7-week-old Sprague-Dawley rats (Charles-River laboratories international, Hollister, Calif.) were allowed to acclimatize for a minimum of 3 days before switching to a synthetic low-phosphorus diet (TD.85010, Harlan Teklad, Madison, Wis.) which contains 0.1% phosphorus and 0.6% calcium. At day 5, testing compounds or vehicle alone (as indicated) were orally administered at the indicated dose in a volume of 5 ml/kg, followed by a bolus gavage of monobasic sodium phosphate (1 mmol in 1 ml) 15 min after compound dosing. Serum was collected via retroorbital bleeding 30 min post phosphate bolus and phosphate levels were determined utilizing an ACE ALERA blood chemistry analyzer (Alfa Wassermann Diagnostic Technologies, West Caldwell, N.J.).
The extent of inhibition by test compounds on the elevation of serum phosphate levels in response to the bolus of phosphorus is shown in Table 12 (data are expressed as % Inhibition, with 6-10 animals per data point). The differences between groups were evaluated by one-way analysis of variance with Dunnett's post hoc tests.

[1] = Stability of compounds in simulated gastric fluid (SGF); type: in vitro ADME; conditions: simulated gastric fluid (USP, 3 mg/mL pepsin), 1-20 μM, incubation time 6 hr, relative to t=0
Procedure: (§1) Test compounds were incubated at 1-20 μM in simulated gastric fluid (SGF; standard USP solution with 3 mg/mL pepsin) or simulated intestinal fluid (SIF; standard USP solution with 3 mg/mL pancreatin) for 3 hr or 6 hr. HPLC-UV or HPLC-MS were used to determine test compound levels using peak area %. Results (Table 14) were reported as the percentage of test compound remaining after incubation in a given condition relative to test compound present at t=0 in the same condition.

[2] = Stability of compounds in simulated intestinal fluid (SIF); type: in vitro ADME; conditions: simulated intestinal fluid (USP, 3 mg/mL pancreatin), 1-20 μM, incubation time 6 hr, relative to t=0
Procedure: as §1

% remaining, SGF [1] [%]	% remaining, SIF [2] [%]	SMILES	% Inhibition of Serum P elevation (Sprague-Dawley rats)
–	–	O=C(O)CCSCc1cccc(C(=O)Nc2ccc(N3CCCCC3)cc2-c2cc(C(=O)NCc3cccc(C(F)(F)F)c3)ccn2)c1 [Example 1.1, 3-(3-((2-(4-((3-(trifluoromethyl)benzyl)carbamoyl)pyridin-2-yl)-4-(piperidin-1-yl)phenyl)carbamoyl)-benzylthio)propanoic acid]	20-30%
>80	80	CCN(CC)c1ccc(NC(=O)c2cccc(C(=O)N(C)CCN3CCOCC3)c2)c(-c2cc(C(=O)NCc3cccc(C(F)(F)F)c3)ccn2)c1 [Example 25, N1-(4-(Diethylamino)-2-(4-((3-(trifluoromethyl)benzyl)carbamoyl)pyridin-2-yl)phenyl)-N3-methyl-N3-(2-morpholinoethyl)isophthalamide]	–
